Patent US20100056443A1, “RADIOPHARMACEUTICAL TO BE USED IN DISTINCTION BETWEEN INFLAMMATIONS AND INFECTIONS IN ORTHOPAEDIC IMPLANTS” (priority 2006, published 2010)
No end group written: not given here.

Columns and labels:
Escherichia Coli = details: cited from earlier work
yeasts = details: in words; b28: yeast C. albicans; cited from earlier work
Gram-negative bacteria = details: in words; HBD-3: P. Aeruginosa, E. Coli; cited from earlier work
[1] = system: Gram-positive bacteria (Streptococcus pyogenes, S. Aureus); details: in words; including multi-resistant S. aureus and vancomycin-resistant Enterococcus Faecium; cited from earlier work
S. Aureus [2] = details: weak antimicrobial activity; cited from earlier work
S. Carnosous = details: strong antimicrobial activity; cited from earlier work
P. aeruginosa = details: strong antimicrobial activity; cited from earlier work
B. cepacea = details: weak antimicrobial activity; cited from earlier work
S. pneumoniae = details: weak antimicrobial activity; cited from earlier work
S. cerevisiae = details: weak antimicrobial activity; cited from earlier work
[3] = system: Gram-positive and Gram-negative bacteria; details: cited from earlier work
infection by S. Aureus = test: Infection detection by 99mTc-HBD-3 in experimental animal model (tissue counting: infection vs sterile inflammation vs normal muscle); type: in vivo, Wistar male rats
Procedure: Tissue samples were collected from the infection and inflammation seats after 1, 3 and 5 hours as from the injection of the tracer for each group of rats. Such samples were counted in a well-like counter. The countings expressed in terms of cpm/g of tissue were compared to the countings of properly collected normal muscle tissue samples. […] The results have been interpreted as indicating a specific bond of radiomarked recombinant HBD-3 with the S. Aureus.
The rats Nr. 3, 6 and 9 had received a weight dose in marked product higher than the rats Nr. 2, 5 and 8 which, in turn, had received a dose of the same product higher than the rats 1, 4 and 7. As it can be seen, a greater ratio between countings measured onto the abscess seat and those recorded onto the inflammation seat and onto the normal muscle corresponds to a higher dose of radiomarked peptide. Such run lets assuming a dose-depending ratio of dependency of the radiopharmaceutical captation.

S. Aureus [4] = test: In vitro control of the biological activity of radiomarked HBD-3 (colony count on agar plates); type: cell-based; details: for Number of CFU existing in the plates: S. Aureus, 1.2 μg radiomarked HBD-3, 2 hours at 37° C.
Procedure: (§1) The control was performed as described by Harwing et al. Methods Enzymology 1994, 236: 160-172. In particular, the aliquote portion (20 μl) of a bacterial suspension of S. Aureus containing 5×10^6 CFU/ml was incubated (2 hours at 37° C.) with 200 μl of radiomarked HBD-3 (1.2 μg) and 75 μl of a suitable dilution of a culture broth (Tryptic Soy Broth). After incubation, two samples with dilution factors equalling to 1:1345 and 1:13450 were derived from the mixture. Twentyfive μl of these samples were collected and sown with sterile rod onto plates containing a culture medium (agar plate). After incubation for 24 hours at 37° C. the colonies were counted. A value higher than 800 CFU was considered not assessable due to the difficulty in counting.
(§2) An analogous experiment was carried out, under the same conditions, by using 200 μl of sterile buffer instead of the radiomarked HBD-3.

E. Coli = test: as above; type: cell-based; details: for Number of CFU existing in the plates: E. Coli
Procedure: as §1, §2
Both tests illustrated above, aimed at testing the sensibility of S. Aureus to the radiomarked HBD-3, were repeated, under identical conditions, with E. Coli with the same purposes. The results are shown in Table III and in FIGS. 1 and 2.

[5] = dilution 1:1345, >800 CFU not assessable

For “HBD-1: human β-defensin, constitutive expression (DHYNCVSSGGQCLYSACPIFTKIQGTCYRGKAKCCK; UniProt P60022 33-68, looked up)”, the Activity (Escherichia Coli; at micro-molecular concentrations) is given as “Bactericide*”.

In the case of “HBD-3: human beta-defensin-3, antimicrobial peptide weighing 5,15 kDa (GIINTLQKYYCRVRGGRCAVLSCLPKEEQIGKCSTRGRKCCRRKK; Beta-defensin 103; UniProt P81534 23-67, looked up)”, the Activity (yeasts) is given as “Bactericide”, the Activity (Gram-negative bacteria) is given as “Bactericide” and the Activity [1] is given as “Bactericide”.

In the case of “HBD-4: human β-defensin, constitutive expression (EFELDRICGYGTARCRKKCRSQEYRIGRCPNTYACCLRKWDESLLNRTKP; UniProt Q8WTQ1 23-72, looked up)”, the MIC (S. Aureus [2]) is listed as “(MIC > 100 μg/ml);”, the MIC (S. Carnosous) is listed as “(MIC = 4.5 μg/ml)” and the MIC (P. aeruginosa) is listed as “(MIC = 4.1 μg/ml)”. The MIC (B. cepacea) was “(MIC > 100 μg/ml);”, the MIC (S. pneumoniae) was “(MIC > 100 μg/ml);” and the MIC (Escherichia Coli; weak antimicrobial activity) was “(MIC > 100 μg/ml);”. For the same substance, the MIC (S. cerevisiae) was “(MIC > 100 μg/ml);”.

For “HNP-1: human α-defensin inside neutrophils”, the Bactericide concentrations ([3]; Gram-positive and Gram-negative bacteria) is given as “greater than 100 μl;”.

In the case of “HNP-2: truncated human α-defensin (CYCRIPACIAGERRYGTCIYQGRLWAFCC; Neutrophil defensin 2; UniProt P59665 66-94, looked up)”, the Activity ([3]; in words, relative to HNP-1) is given as “Like HPN-1”.

For “radiomarked HBD-3: recombinant human β-defensin-3 marked with 99mTc+ exa-coordinated with 3 molecules of CO and H2O (GIINTLQKYYCRVRGGRCAVLSCLPKEEQIGKCSTRGRKCCRRKK; cysteine pairing not given here; also: 99mTc(CO)3 label, site not given here; UniProt P81534 23-67, looked up)”, the “tracer's captation in the infection seats relative to the inflammation seats” value (infection by S. Aureus; rats, 5 hours as from the tracer's injection, cpm/g of tissue) was 3 times, the “fixation of tracer, inflammatory lesions versus normal muscles” value (infection by S. Aureus; rats, in the whole experiment (1, 3 and 5 hours)) was “no significant fixation differences” and the “tracer's captation, infection seats versus inflammation seats” value (infection by S. Aureus; rats, one hour as from the injection) was “no significant differences”. The “dependency of the radiopharmaceutical captation ratio (abscess vs inflammation seat and normal muscle) on dose” value (infection by S. Aureus; single rats 1-9, doses from 1,6 to 5,2 μg) was “dose-depending”, the “Number of CFU existing in the plates” value (S. Aureus [4]; [5]) was 348 CFU and the “Number of CFU existing in the plates” value (S. Aureus [4]; dilution 1:13450) was 17 CFU. The “biological activity of HBD-3 after marking with 99mTc” value (S. Aureus [4]; towards S. Aureus (greater than towards E. Coli)) was “maintained biological activity”, the “Number of CFU existing in the plates” value (E. Coli; [5]) was over 800 CFU and the “Number of CFU existing in the plates” value (E. Coli; dilution 1:13450) was 310 CFU. For the same substance, the “biological activity of HBD-3 after marking with 99mTc” value (E. Coli; towards E. Coli (lower than towards S. Aureus)) was “maintained biological activity”.
